In doi:10.1101/390401v1, “Flux balance analysis predicts NADP phosphatase and NADH kinase are critical to balancing redox during xylose fermentation in Scheffersomyces stipitis” (biorxiv, 2018):

Target: T1, K. phaffii Adh2p (Komagataella pastoris, UniProt A0A1B2JBQ8)
T1 construct: gene ADH2; purified natively from wild-type K. phaffii; 40 kDa band
T1 sequence (A0A1B2JBQ8 1-350): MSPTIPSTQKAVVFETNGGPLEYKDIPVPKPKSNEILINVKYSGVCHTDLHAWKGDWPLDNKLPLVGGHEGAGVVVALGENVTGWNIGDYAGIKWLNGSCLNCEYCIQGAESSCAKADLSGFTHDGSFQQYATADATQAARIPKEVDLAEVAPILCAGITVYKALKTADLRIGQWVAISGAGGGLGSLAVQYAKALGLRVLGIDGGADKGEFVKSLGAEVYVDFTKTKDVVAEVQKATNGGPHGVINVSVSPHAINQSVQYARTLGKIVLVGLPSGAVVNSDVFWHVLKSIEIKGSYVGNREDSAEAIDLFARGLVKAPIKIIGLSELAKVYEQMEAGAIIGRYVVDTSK
Assay: NADH and NADPH oxidation at […] nm
Type: biochemical
Settings: 0.01-10 mM butyraldehyde, NADH or NADPH, 1 mM ZnCl2, 50 mM HEPES pH 7.5, 30 C

Structure (SMILES) | NADH and NADPH oxidation at 340 nm
CCCC=O [butyraldehyde] | Both NADH and NADPH reduced butyraldehyde
NC(=O)C1=CN([C@@H]2O[C@H](COP(=O)(O)OP(=O)(O)OC[C@H]3O[C@@H](n4cnc5c(N)ncnc54)[C@H](O)[C@@H]3O)[C@@H](O)[C@H]2O)C=CC1 [NADH] | Both NADH and NADPH reduced butyraldehyde
